Experimental data from patent US20220033623A1, “CONJUGATES OF HYALURONIC ACID AND AMINOBISPHOSPHONATES AND THE THERAPEUTIC USE THEREOF” (FIDIA FARMACEUTICI S.P.A., priority 2018, published 2022).
Where two headings read alike, the source gives them in different places.

Tests used:
[1] = system: primary bovine chondrocytes; settings: for cytotoxic effect: 7 days
[2] = Rheological properties: viscoelastic moduli (frequency sweep) after adding CaCl2; format: physicochemical; settings: 20 mg/mL in 0.1 M TRIS pH 7, alendronate 2.4 mg/mL, CaCl2 2 mg/mL, 20° C, 0.1-100 rad/s; FIG. 2
Saos-2 osteoblasts = settings: for cell viability: 3 days of incubation, % of that of the control, FIG. 4A

viscoelastic moduli G′ (elastic) and G″ (viscous), comparison in words [2]: no effect on rheological behaviour
Structure (SMILES): NCCCC(O)(P(=O)(O)O)P(=O)(O)O [alendronate]
onset of the effect on the cells [1]: acts on the primary bovine chondrocytes after only 72 hours of incubation | cytotoxic effect ([1]; 50 μM): maximum cytotoxic effect | cytotoxic effect ([1]; 100 μM): maximum cytotoxic effect | cell viability (Saos-2 osteoblasts; Saos-2, 50 μM): < 70% | cell viability (Saos-2 osteoblasts; Saos-2, 100 μM): < 70% | cytotoxicity as a function of incubation period (Saos-2 osteoblasts; Saos-2, 3 versus 7 days): increases significantly in proportion to the incubation period
